Measurements as given in PubChem BioAssay AID330 (DTP/NCI, 2004).
Where “and” joins values, the source holds several entries; their conditions need not be identical. Equal values may be shown once. Toxic doses and inconclusive results are not listed. How the source made its calls: active means survival T/C of 150% or more; inactive means T/C below 125% in these data.

Tested on: P388 leukemia ip, CD2F1 mice, survival T/C
Experiment: NCI In Vivo Anticancer Drug Screen. Data for tumor model P388 Leukemia (intraperitoneal) in CD2F1 (CDF1) mice
Details: endpoint: median survival time, higher = longer survival
How it was run: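 Mice carrying the transplanted tumor received test compound or vehicle. Survival was recorded in each group, and the value is the treated-group measurement divided by that of the vehicle-treated control group.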

[1] = dose: 50.0 mg/kg/injection, schedule: Q01DX005 (ip), vehicle: Klucel (hydroxypropylcellulose) (HPC)
[2] = dose: 100.0 mg/kg/injection, schedule: Q01DX005 (ip), vehicle: Klucel (hydroxypropylcellulose) (HPC)
[3] = dose: 60.0 mg/kg/injection, schedule: Q01DX005 (ip), vehicle: saline with Tween-80
[4] = dose: 120.0 mg/kg/injection, schedule: Q01DX005 (ip), vehicle: saline with Tween-80
[5] = dose: 100.0 mg/kg/injection, schedule: Q04DX002 (ip), vehicle: saline with Tween-80
[6] = dose: 50.0 mg/kg/injection, schedule: Q01DX009 (ip), vehicle: Klucel (hydroxypropylcellulose) (HPC)
[7] = dose: 100.0 mg/kg/injection, schedule: Q01DX009 (ip), vehicle: Klucel (hydroxypropylcellulose) (HPC)
[8] = dose: 12.5 mg/kg/injection, schedule: Q01DX005 (ip), vehicle: Klucel (hydroxypropylcellulose) (HPC)
[9] = dose: 25.0 mg/kg/injection, schedule: Q01DX005 (ip), vehicle: Klucel (hydroxypropylcellulose) (HPC)
[10] = dose: 100.0 mg/kg/injection, schedule: Q04DX002 (ip), vehicle: saline
[11] = dose: 200.0 mg/kg/injection, schedule: Q04DX002 (ip), vehicle: saline
[12] = dose: 25.0 mg/kg/injection, schedule: Q01DX009 (ip), vehicle: saline with Tween-80
[13] = dose: 50.0 mg/kg/injection, schedule: Q01DX009 (ip), vehicle: saline with Tween-80
[14] = dose: 60.0 mg/kg/injection, schedule: Q01DX005 (ip), vehicle: Klucel (hydroxypropylcellulose) (HPC)
[15] = dose: 120.0 mg/kg/injection, schedule: Q01DX005 (ip), vehicle: Klucel (hydroxypropylcellulose) (HPC)
[16] = dose: 240.0 mg/kg/injection, schedule: Q01DX005 (ip), vehicle: Klucel (hydroxypropylcellulose) (HPC)
[17] = dose: 25.0 mg/kg/injection, schedule: Q04DX002 (ip), vehicle: saline with Tween-80
[18] = dose: 50.0 mg/kg/injection, schedule: Q04DX002 (ip), vehicle: saline with Tween-80

Measured: T/C

O=C1N(Cl)C(=O)C2(c3ccccc3-c3ccccc32)N1Cl
inactive: [1] 100 % of control | [2] 108 % of control

Cc1cc(C)c(CCl)cc1CCl
inactive: dose: 20.0 mg/kg/injection, schedule: Q04DX003 (ip), vehicle: saline with Tween-80 113 % of control | dose: 40.0 mg/kg/injection, schedule: Q04DX003 (ip), vehicle: saline with Tween-80 118 % of control | dose: 80.0 mg/kg/injection, schedule: Q04DX003 (ip), vehicle: saline with Tween-80 90 % of control

COC(=O)c1ccc(=O)c2nc3/c(=C/O)c(O)cc(=O)c3[nH]c12
inactive: dose: 0.15 mg/kg/injection, schedule: Q04DX003 (ip), vehicle: saline 95 % of control | dose: 0.3 mg/kg/injection, schedule: Q01DX009 (ip), vehicle: saline with Tween-80 90 % of control | dose: 0.3 mg/kg/injection, schedule: Q04DX003 (ip), vehicle: saline 100 % of control | dose: 0.6 mg/kg/injection, schedule: Q04DX003 (ip), vehicle: saline 109 % of control

Brc1cc(Br)cc(CN2CCOCC2)c1
inactive: [3] 98 % of control | [4] 100 % of control | dose: 240.0 mg/kg/injection, schedule: Q01DX005 (ip), vehicle: saline with Tween-80 106 % of control

COc1ccc2c(c1)CCC1=C2N=CN2CCN=C12
inactive: [5] 102 % of control

ClCc1nnc(-c2ccccc2)o1
inactive: [6] 100 % of control | [7] 95 % of control

COc1cc(NC(C)CCCN)c2nc(C)ccc2c1Oc1ccc(F)cc1 (centres undefined)
inactive: dose: 12.5 mg/kg/injection, schedule: Q01DX009 (ip), vehicle: water 109 % of control | dose: 25.0 mg/kg/injection, schedule: Q01DX009 (ip), vehicle: water 92 % of control

COC(=O)c1nc(N)nc(C(=O)OC)c1C(=O)c1ccc(Cl)c(Cl)c1
inactive: [3] 100 % of control | [4] 94 % of control

Nc1cc2c3c(cccc3c1O)CC2
inactive: dose: 6.25 mg/kg/injection, schedule: Q01DX005 (ip), vehicle: Klucel (hydroxypropylcellulose) (HPC) 99 % of control | [8] 102 % of control | [9] 102 % of control

O=[N+]([O-])c1ccccc1N/N=C\c1c(Cl)[nH]c2ccccc12
inactive: [1] 90 % of control | [2] 95 % of control | dose: 100.0 mg/kg/injection, schedule: Q04DX002 (ip), vehicle: Klucel (hydroxypropylcellulose) (HPC) 90 % of control | dose: 200.0 mg/kg/injection, schedule: Q04DX002 (ip), vehicle: Klucel (hydroxypropylcellulose) (HPC) 91 % of control | dose: 400.0 mg/kg/injection, schedule: Q04DX002 (ip), vehicle: Klucel (hydroxypropylcellulose) (HPC) 95 % of control

CCO/C=C(/C#N)C(=O)OC
inactive: [10] 100 % of control | [11] 101 % of control | dose: 400.0 mg/kg/injection, schedule: Q04DX002 (ip), vehicle: saline 100 % of control

O=NN(CCCl)C(=O)Nc1ccc(I)cc1
active: dose: 3.0 mg/kg/injection, schedule: Q01DX009 (ip), vehicle: saline with Tween-80 154 % of control | dose: 4.5 mg/kg/injection, schedule: Q01DX009 (ip), vehicle: saline with Tween-80 163 % of control | dose: 6.25 mg/kg/injection, schedule: Q04DX003 (ip), vehicle: saline with Tween-80 154 % of control | dose: 11.0 mg/kg/injection, schedule: Q01DX009 (ip), vehicle: saline with Tween-80 150 % of control and 152 % of control | dose: 12.5 mg/kg/injection, schedule: Q04DX003 (ip), vehicle: saline with Tween-80 163 % of control | dose: 16.5 mg/kg/injection, schedule: Q01DX009 (ip), vehicle: saline with Tween-80 154 % of control and 157 % of control | [12] 152 % of control and 154 % of control and 163 % of control | dose: 25.0 mg/kg/injection, schedule: Q04DX003 (ip), vehicle: saline sonified 150 % of control | dose: 37.5 mg/kg/injection, schedule: Q01DX009 (ip), vehicle: saline with Tween-80 171 % of control and 177 % of control | [13] 200 % of control | dose: 50.0 mg/kg/injection, schedule: Q04DX003 (ip), vehicle: saline sonified 183 % of control

CCOC(=O)/C(=C(/C)N=Cc1ccccc1[N+](=O)[O-])C(NN=O)c1ccccc1[N+](=O)[O-] (centres undefined)
inactive: [9] 97 % of control | [1] 93 % of control | [2] 88 % of control and 90 % of control

CP1(=O)CCc2c1ccc1ccccc21 (centres undefined)
inactive: [10] 107 % of control | [11] 101 % of control

O=c1oc2c3c4c(cc2c2c1CCC2)CCCN4CCC3
inactive: dose: 100.0 mg/kg/injection, schedule: Q04DX003 (ip), vehicle: Klucel (hydroxypropylcellulose) (HPC) 102 % of control | dose: 200.0 mg/kg/injection, schedule: Q04DX003 (ip), vehicle: Klucel (hydroxypropylcellulose) (HPC) 101 % of control | dose: 400.0 mg/kg/injection, schedule: Q04DX003 (ip), vehicle: Klucel (hydroxypropylcellulose) (HPC) 100 % of control

C=C1C[C@]23C[C@H](O)[C@]4(O)[C@@]5(C)C[C@H](O)C[C@]46C(C2[C@@H]1[C@@H](OC(=O)/C(C)=C/C)[C@@H](OC(=O)/C(C)=C/C)[C@H]36)N(C)C5 (some centres undefined)
inactive: dose: 0.5 mg/kg/injection, schedule: Q01DX005 (ip), vehicle: saline + alcohol 102 % of control | dose: 1.0 mg/kg/injection, schedule: Q01DX005 (ip), vehicle: saline + alcohol 105 % of control and 106 % of control | dose: 2.0 mg/kg/injection, schedule: Q01DX005 (ip), vehicle: saline + alcohol 105 % of control and 109 % of control | dose: 4.0 mg/kg/injection, schedule: Q01DX005 (ip), vehicle: saline + alcohol 103 % of control and 109 % of control | dose: 8.0 mg/kg/injection, schedule: Q01DX005 (ip), vehicle: saline + alcohol 103 % of control

ONC(=Nc1cccc2ccccc12)C(=Nc1cccc2ccccc12)NO
inactive: [14] 99 % of control | [15] 102 % of control | [16] 103 % of control

Cc1ccc2[nH]cc(C3CCCN4CCCCC34)c2c1 (centres undefined)
inactive: dose: 12.5 mg/kg/injection, schedule: Q01DX001 (ip), vehicle: saline with Tween-80 99 % of control | dose: 25.0 mg/kg/injection, schedule: Q01DX001 (ip), vehicle: saline with Tween-80 100 % of control | dose: 50.0 mg/kg/injection, schedule: Q01DX001 (ip), vehicle: saline with Tween-80 98 % of control | dose: 90.0 mg/kg/injection, schedule: Q01DX001 (ip), vehicle: saline with Tween-80 92 % of control

CC1=NN(C(=O)c2ccccc2)C(=O)C1N=Nc1ccc([N+](=O)[O-])cc1 (centres undefined)
inactive: [17] 101 % of control | [18] 100 % of control | [5] 88 % of control and 92 % of control

O=S(Nc1ccccc1)Nc1ccccc1
inactive: [12] 100 % of control | [13] 100 % of control | dose: 100.0 mg/kg/injection, schedule: Q01DX009 (ip), vehicle: saline with Tween-80 90 % of control

Cc1cc(C2(c3cc(C)c(O)c(C)c3)CC3CCC2C3)cc(C)c1O (centres undefined)
inactive: [6] 88 % of control | [7] 97 % of control | dose: 200.0 mg/kg/injection, schedule: Q01DX009 (ip), vehicle: Klucel (hydroxypropylcellulose) (HPC) 93 % of control

OCCN1CCC(C2CCN(CCO)CC2)CC1
inactive: dose: 50.0 mg/kg/injection, schedule: Q01DX005 (ip), vehicle: saline 96 % of control | dose: 100.0 mg/kg/injection, schedule: Q01DX005 (ip), vehicle: saline 97 % of control | dose: 200.0 mg/kg/injection, schedule: Q01DX005 (ip), vehicle: saline 98 % of control

COC(=O)C(N)C(F)c1ccccc1 (centres undefined)
inactive: [14] 107 % of control | [15] 100 % of control | [16] 98 % of control

Nc1cc2nnc(-c3ccccc3)c(-c3ccccc3)n2n1
inactive: [17] 91 % of control | [18] 86 % of control

Cc1ncc[nH]1
inactive: dose: 50.0 mg/kg/injection, schedule: Q01DX009 (ip), vehicle: saline 90 % of control | dose: 100.0 mg/kg/injection, schedule: Q01DX009 (ip), vehicle: saline 92 % of control | dose: 200.0 mg/kg/injection, schedule: Q01DX009 (ip), vehicle: saline 89 % of control

CNc1[nH]c(=O)[nH]c(=O)c1[N+](=O)[O-]
inactive: [8] 100 % of control | [9] 105 % of control | [1] 105 % of control and 112 % of control
